These are literature values, as cited in paper PMC8583966, “Proteasome Inhibitors and Their Pharmacokinetics, Pharmacodynamics, and Metabolism” (International Journal of Molecular Sciences, 2021).

The conditions of data set [1]: single agent, cited from earlier work.
On the set-up of data set [2]: method as in PMID 28428366. As to conditions: human hepatocytes, quantified with synthesized standards; cited from earlier work.
The conditions of data set [3]: summary table; cited from earlier work.
The test system of a further data set is proteasome subunits. The conditions noted are these: summary table; cited from earlier work.
Details of data set [4]: method as in PMID 19348473. The conditions noted are these: dogs; cited from earlier work.
Details of data set [5]: method as in PMID 28428366. As to conditions: pooled HLMs, cited from earlier work.
The test system of a further data set is proteasome. Also noted: method as in PMID 31142508. The conditions noted are these: at MTD, 4 h post-dose; cited from earlier work.
Details of data set [6]: method as in PMID 19348473. As to conditions: rats; cited from earlier work.
Details of data set [7]: method as in PMID 19348473. As to conditions: mice; cited from earlier work.
The conditions of data set [8]: summary table; cited from earlier work. This is another data set of the same source.

Where two headings read alike, the source gives them in different places. Bounds are passed on as bounds.

Consider `COC[C@H](NC(=O)c1cnc(C)s1)C(=O)N[C@@H](COC)C(=O)N[C@@H](Cc1ccccc1)C(=O)[C@@]1(C)CO1` [Oprozomib], for which the “maximum tolerated dose (MTD)” value in [1] (first 2 days every 7 days of a 14-day cycle (2/7 schedule)) is 300 mg/day; in data set [1] (first 5 days of a 14-day cycle (5/14 schedule)), 240 mg/day. Besides, the “percent of total oprozomib recovered as component” value in data set [2] is 20%. Besides, in data set [3], the Absorption result is listed as “fast”. Further, the Clearance entry in data set [3] is recorded as “fast”. In the data set with proteasome subunits, the “Subunit Inhibition” value is “ß5 and LMP7”. Also, the “oral bioavailability F%” value is given as 39% in [4], 21% in [6] and 17% in [7]. The intrinsic clearance in data set [5] (absence of NADPH) is recorded as 20.2 ± 1.8 µL/min/mg protein; in [5] (presence of NADPH), 70.7 ± 2.9 µL/min/mg protein. The “increase of intrinsic clearance by NADPH” value in data set [5] (presence vs absence of NADPH) is 3.5 fold. The proteasome inhibition with proteasome is at least 70%. Further, in data set [8], the “Metabolic Pathwas” value is reported as “Microsomal epoxide hydrolase peptidases, CYPs”.
